From PubChem BioAssay (NCI) come the findings set out here.

Among the test systems are 786-0 renal; A498 renal; COLO 205 colon; LOX IMVI melanoma; NCI-H460 lung; RPMI-8226 leukemia; SF-539 CNS; SNB-75 CNS; UACC-257 melanoma.
Common to all, as to assay: growth of human tumour cells (NCI), 48 h

Each structure is given as a SMILES string.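 These data come from cells grown in 96-well plates and exposed to compound for 48 hours at five concentrations. Here, GI50 denotes the concentration required for 50% inhibition of growth. TGI denotes the concentration required for complete inhibition of growth.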 Bounds are passed on as bounds.

In the case of `Cc1cccc(C(C)(C)C)c1NC(=O)C(=O)Cc1nc2ccccc2s1`, the TGI in the assay with 786-0 renal, with A498 renal, with COLO 205 colon, in the assay with LOX IMVI melanoma, with NCI-H460 lung and in the assay with RPMI-8226 leukemia was more than 100 µM each time. The TGI in the assay with SF-539 CNS, in the assay with SNB-75 CNS and in the assay with UACC-257 melanoma was more than 100 µM in each case.
`Cc1nc2nnc(C)n2c2c1C(=O)Nc1ccccc1N2`: the TGI in the assay on 786-0 renal, in the assay on COLO 205 colon, with LOX IMVI melanoma, in the assay with NCI-H460 lung, in the assay with RPMI-8226 leukemia and with SF-539 CNS was more than 100 µM throughout. Besides, the TGI in the assay on SNB-75 CNS and in the assay with UACC-257 melanoma was more than 100 µM throughout.
`C1CN2N3CCCC23C1` (stereo unspecified): the TGI with 786-0 renal, with A498 renal, with COLO 205 colon, in the assay with LOX IMVI melanoma, in the assay with NCI-H460 lung and with RPMI-8226 leukemia was more than 100 µM each time. The TGI with SF-539 CNS, in the assay with SNB-75 CNS and in the assay with UACC-257 melanoma was more than 100 µM throughout.
For the molecule `C#CC(C)(C)Oc1cc(O)c2c(=O)c3ccccc3n(C)c2c1`, the TGI in the assay with 786-0 renal is more than 100 µM; in the assay on A498 renal it was more than 100 µM; in the assay on COLO 205 colon, more than 100 µM; in the assay with LOX IMVI melanoma, 44.3 µM; with NCI-H460 lung it was more than 100 µM; with SF-539 CNS, 58.1 µM. For the same molecule, the TGI with SNB-75 CNS and with UACC-257 melanoma was more than 100 µM in each case.
On to `O=C(/C=C(\[O-])c1ccccc1)CCCCCCC(=O)/C=C(\[O-])c1ccccc1.O=C(/C=C(\[O-])c1ccccc1)CCCCCCC(=O)/C=C(\[O-])c1ccccc1.O=C(/C=C(\[O-])c1ccccc1)CCCCCCC(=O)/C=C(\[O-])c1ccccc1.[La+3].[La+3]`, for which the GI50 in the assay on 786-0 renal, in the assay with A498 renal, in the assay with COLO 205 colon, in the assay on LOX IMVI melanoma, in the assay with NCI-H460 lung and in the assay on RPMI-8226 leukemia was more than 50 µM throughout. The values for the GI50 in the assay with SNB-75 CNS and in the assay on UACC-257 melanoma were 9.33 µM and more than 50 µM, respectively. Moreover, the TGI in the assay with 786-0 renal, in the assay on A498 renal, in the assay on COLO 205 colon, with LOX IMVI melanoma, in the assay with NCI-H460 lung and with RPMI-8226 leukemia was more than 50 µM in each case. The results for the TGI in the assay on SNB-75 CNS and in the assay with UACC-257 melanoma were 48.2 µM and more than 50 µM, respectively.
On to `CC1CCC[P+](Cc2ccccc2)(c2ccccc2)CC1` (stereo unspecified), for which the TGI was more than 100 µM in the assay on 786-0 renal; more than 100 µM in the assay with A498 renal; more than 100 µM with COLO 205 colon; more than 100 µM with LOX IMVI melanoma; more than 100 µM with NCI-H460 lung; 51.4 µM with RPMI-8226 leukemia. Also, the TGI in the assay on SF-539 CNS and with SNB-75 CNS was more than 100 µM throughout.
For the molecule `O=[N+]([O-])c1ccc(NSc2ccccc2)cc1`, the TGI is 30.8 µM in the assay on 786-0 renal; more than 100 µM in the assay with COLO 205 colon; 28 µM in the assay with LOX IMVI melanoma; more than 100 µM in the assay on NCI-H460 lung; 44.6 µM in the assay with SF-539 CNS; more than 100 µM in the assay with UACC-257 melanoma.
Turning to `C[Si](C)(C)c1ccc(CC2(Cc3ccc([Si](C)(C)C)cc3)CCNC2)cc1`, the TGI turned out to be 3.38 µM in the assay with 786-0 renal; 2.91 µM in the assay with A498 renal; 3.19 µM in the assay with COLO 205 colon; 3.19 µM in the assay with LOX IMVI melanoma; 3.73 µM in the assay with NCI-H460 lung; 10.4 µM with SF-539 CNS. In addition, the TGI was determined as 7.67 µM in the assay on SNB-75 CNS and 5.41 µM in the assay on UACC-257 melanoma.
As to `CCOC(=O)CCCO`, the TGI with 786-0 renal, in the assay on A498 renal, in the assay with LOX IMVI melanoma, with NCI-H460 lung, in the assay with RPMI-8226 leukemia and with SF-539 CNS was more than 100 µM in each case. Moreover, the TGI in the assay with SNB-75 CNS and with UACC-257 melanoma was more than 100 µM throughout.
Regarding `C[C@]12CCC(=O)C=C1CC[C@@H]1C2CC[C@]2(C)NC(=O)C(C#N)CC12` (stereo partly specified), the TGI in the assay on 786-0 renal, in the assay on A498 renal, in the assay with NCI-H460 lung, in the assay with RPMI-8226 leukemia, with SF-539 CNS and in the assay with SNB-75 CNS was more than 100 µM throughout. The TGI with UACC-257 melanoma was more than 100 µM.
With `O=S(=O)(O)C(O)/C=C/c1ccccc1` (stereo unspecified), the TGI with 786-0 renal, in the assay on A498 renal, in the assay on COLO 205 colon, in the assay on LOX IMVI melanoma, in the assay with SNB-75 CNS and with UACC-257 melanoma was more than 100 µM each time.
Take `NC1(CCCCCCCCCCC(=O)O)CNCCNCCNCCNC1`: the TGI with 786-0 renal was more than 100 µM; with A498 renal it was 46.7 µM; with COLO 205 colon, more than 100 µM; with NCI-H460 lung, 86.4 µM; in the assay with RPMI-8226 leukemia, more than 100 µM; with SF-539 CNS, more than 100 µM. This molecule displayed a TGI with UACC-257 melanoma of more than 100 µM.
Turning to `O=C(O)c1cc(S(=O)(=O)N=NC=C2c3ccccc3N(O)c3ccccc32)ccc1O`, the TGI is 27.7 µM in the assay with 786-0 renal; 41 µM in the assay on A498 renal; 37.6 µM with COLO 205 colon; 26 µM with LOX IMVI melanoma; 33.5 µM in the assay on NCI-H460 lung; 76.6 µM in the assay on RPMI-8226 leukemia. Further, the TGI with SNB-75 CNS is 7.77 µM; in the assay on UACC-257 melanoma, 88.2 µM.
With `CC1=C[C@@H]2Cc3occc3C(C)(C)[C@@H]2CC1`, the TGI in the assay with 786-0 renal worked out at 34.1 µM; with A498 renal it was 49.6 µM; with COLO 205 colon it was 33.7 µM; in the assay on LOX IMVI melanoma, 33.6 µM; in the assay on SF-539 CNS, 58.7 µM; in the assay on SNB-75 CNS, 33.5 µM. This molecule also yielded a TGI with UACC-257 melanoma of 44.7 µM.
For `CN(C)CCNC(=O)c1cccc2nc3c(Cl)cccc3nc12`, the TGI was more than 49.1 µM in the assay with 786-0 renal; 16.9 µM in the assay on A498 renal; more than 37.3 µM in the assay on COLO 205 colon; 10.7 µM in the assay with LOX IMVI melanoma; 82.6 µM in the assay with RPMI-8226 leukemia; 16.8 µM in the assay with SF-539 CNS. The TGI in the assay with SNB-75 CNS came out at 32.2 µM; in the assay with UACC-257 melanoma it was 26.9 µM.
In the case of `CC(C)(C)C1=NC(S)NC(CCC(=O)Nc2ccccc2[N+](=O)[O-])=C1` (stereo unspecified), the TGI with 786-0 renal, in the assay with COLO 205 colon, in the assay with LOX IMVI melanoma, in the assay with NCI-H460 lung, in the assay on SF-539 CNS and in the assay with UACC-257 melanoma was more than 100 µM in each case.
Consider `CC(=O)OCCc1cccnc1/C=N/O`, for which the TGI in the assay on 786-0 renal, with COLO 205 colon, with LOX IMVI melanoma, with NCI-H460 lung, in the assay on SF-539 CNS and in the assay on SNB-75 CNS was more than 100 µM in each case. In the assay with UACC-257 melanoma, this molecule registered a TGI of more than 100 µM.
In the case of `COC(=O)c1c(OC)cccc1C(=O)O`, the TGI with 786-0 renal, in the assay with A498 renal, in the assay on COLO 205 colon, in the assay with NCI-H460 lung, in the assay with RPMI-8226 leukemia and in the assay with SF-539 CNS was more than 100 µM throughout. For the same molecule, the TGI in the assay on SNB-75 CNS and in the assay with UACC-257 melanoma was more than 100 µM in each case.
Turning to `CCCCCCCCCCCCCCC1OC(=O)c2ccccc21` (stereo unspecified), the TGI in the assay on 786-0 renal, in the assay with A498 renal, with LOX IMVI melanoma, in the assay on NCI-H460 lung, in the assay with RPMI-8226 leukemia and in the assay with SF-539 CNS was more than 100 µM in each case. Moreover, the TGI in the assay on SNB-75 CNS and in the assay on UACC-257 melanoma was more than 100 µM each time.
Take `CCCCn1/c(=N/C(=S)N(C)C)ss/c1=N\C(=S)N(C)C`: the TGI in the assay with 786-0 renal, in the assay with A498 renal, in the assay on LOX IMVI melanoma, with NCI-H460 lung, in the assay on RPMI-8226 leukemia and in the assay on SF-539 CNS was more than 100 µM throughout. The TGI with SNB-75 CNS and in the assay on UACC-257 melanoma was more than 100 µM in each case.
In the case of `COc1ccc(N=Cc2cc(OC)c(OC)c(OC)c2)cc1`, the TGI with 786-0 renal is more than 100 µM; in the assay with A498 renal, more than 100 µM; in the assay on LOX IMVI melanoma, more than 100 µM; with NCI-H460 lung, more than 100 µM; in the assay with RPMI-8226 leukemia, 59.6 µM; in the assay on SF-539 CNS, more than 100 µM. In addition, the TGI in the assay with SNB-75 CNS and with UACC-257 melanoma was more than 100 µM throughout.
`OCc1c(-c2cccc3ccccc23)sc(-c2cccc3ccccc23)c1CO`: the TGI in the assay on 786-0 renal worked out at 27.4 µM; in the assay with COLO 205 colon it was 24.9 µM; in the assay on LOX IMVI melanoma, 30.5 µM; with NCI-H460 lung, 34.7 µM; in the assay with RPMI-8226 leukemia, 43.7 µM; in the assay with SF-539 CNS, 28.8 µM. Moreover, the TGI turned out to be 30.7 µM with SNB-75 CNS and 25.6 µM in the assay with UACC-257 melanoma.
As for `COC(=O)C(CC(=O)c1cc2c(cc1I)OCO2)Cc1cc(OC)c(OC)c(OC)c1I` (stereo unspecified), the TGI in the assay with 786-0 renal, with COLO 205 colon, in the assay with LOX IMVI melanoma, in the assay with NCI-H460 lung, in the assay with RPMI-8226 leukemia and with SF-539 CNS was more than 100 µM each time. For the same molecule, in the assay on UACC-257 melanoma, the TGI is more than 100 µM.
Take `O=c1[nH]c(=O)n(C2CC(O)C(CO)O2)cc1C#Cc1c(F)c(F)c(F)c(F)c1F` (stereo unspecified): the TGI with 786-0 renal, in the assay on COLO 205 colon, with LOX IMVI melanoma, with NCI-H460 lung, with RPMI-8226 leukemia and with SF-539 CNS was more than 100 µM in each case. In addition, the TGI with SNB-75 CNS and with UACC-257 melanoma was more than 100 µM in each case.
